Assay results as given in patent US6340689B1 (priority 1999, dated 2002).

How the values were obtained:
[1] = tested on: Erythromycin-resistant L. pneumophila; format: cell-based, Legionella pneumophila
[2] = tested on: Erythromycin-resistant Legionella spp. other than L. pneumophila; format: cell-based

| Structure (SMILES) | Mean PAE [1] [h] | PAE (mean PAE) [1] [h] | Mean PAE [2] [h] | PAE [1] [h] |
| --- | --- | --- | --- | --- |
| CO/N=C1\CN(c2nc3c(cc2F)c(=O)c(C(=O)O)cn3C2CC2)CC1CN (racemic) [Gemifloxacin, (R,S)-7-(3-aminomethyl-4-methoxyiminopyrrolidin-1-yl)-1-cyclopropyl-6-fluoro-4-oxo-1,4-dihydro-1,8-naphthyridine-3-carboxylic acid] | 4.65 ± 3 | 4.65 | 3.34 ± 2 | – |
| CC[C@H]1OC(=O)[C@H](C)[C@@H](O[C@H]2C[C@@](C)(OC)[C@@H](O)[C@H](C)O2)[C@H](C)[C@@H](O[C@@H]2O[C@H](C)C[C@H](N(C)C)[C@H]2O)[C@](C)(O)C[C@@H](C)CN(C)[C@H](C)[C@@H](O)[C@]1(C)O [Azithromycin] | 2.16 ± 1 | – | 2.13 ± 1 | – |
| O=C(O)c1cn(C2CC2)c2cc(N3CCNCC3)c(F)cc2c1=O [Ciprofloxacin] | 2.86 ± 2 | – | 2.13 ± 3 | – |
| CC[C@H]1OC(=O)[C@H](C)[C@@H](O[C@H]2C[C@@](C)(OC)[C@@H](O)[C@H](C)O2)[C@H](C)[C@@H](O[C@@H]2O[C@H](C)C[C@H](N(C)C)[C@H]2O)[C@](C)(OC)C[C@@H](C)C(=O)[C@H](C)[C@@H](O)[C@]1(C)O [Clarithromycin] | 1.90 ± 1 | – | 1.60 ± 2 | 1.9 |
| CC[C@H]1OC(=O)[C@H](C)[C@@H](O[C@H]2C[C@@](C)(OC)[C@@H](O)[C@H](C)O2)[C@H](C)[C@@H](O[C@@H]2O[C@H](C)C[C@H](N(C)C)[C@H]2O)[C@](C)(O)C[C@@H](C)C(=O)[C@H](C)[C@@H](O)[C@]1(C)O [Erythromycin] | 0.90 ± 1 | – | 0.44 ± 1 | – |
| Cc1c(F)c(N2CCNC(C)C2)cc2c1c(=O)c(C(=O)O)cn2C1CC1 (centres unmarked) [Grepafloxacin] | 4.18 ± 3 | 4.18 | 3.67 ± 1 | – |
| C[C@H]1COc2c(N3CCN(C)CC3)c(F)cc3c(=O)c(C(=O)O)cn1c23 [Levofloxacin] | 2.59 ± 2 | – | 3.24 ± 1 | 2.59 |
| COc1c(N2C[C@@H]3CCCN[C@@H]3C2)c(F)cc2c(=O)c(C(=O)O)cn(C3CC3)c12 [Moxifloxacin] | 3.38 ± 2 | 3.38 | 2.02 ± 1 | – |
| CC1COc2c(N3CCN(C)CC3)c(F)cc3c(=O)c(C(=O)O)cn1c23 (centres unmarked) [Ofloxacin] | 2.99 ± 1 | – | 4.13 ± 2 | – |
| CO[C@H]1/C=C/O[C@@]2(C)Oc3c(C)c(O)c4c(O)c(c(/C=N/N5CCN(C)CC5)c(O)c4c3C2=O)NC(=O)/C(C)=C\C=C\[C@H](C)[C@H](O)[C@@H](C)[C@@H](O)[C@@H](C)[C@H](OC(C)=O)[C@@H]1C [Rifampicin] | 0.93 ± 4 | – | 5.6 ± 3 | 0.9 |
| N[C@@H]1[C@H]2CN(c3nc4c(cc3F)c(=O)c(C(=O)O)cn4-c3ccc(F)cc3F)C[C@@H]12 [Trovafloxacin] | 2.83 ± 2 | 2.83 | 2.25 ± 2 | – |
